Laboratory results reported in patent publication US4613355A, “Antibiotic having herbicidal activity” (Satoshi Omura, priority 1983, dated 1986).
Where a name gives a salt, the structure may show the parent alone.

How the values were obtained:
Assay type in all cases: in vivo
Castanea crenata = assay: Foliage treatment of woody plants (Example 10); set-up: key: 0 indicates no effect; 5 indicates complete kill; conditions: Plant No. 8 Castanea crenata
Text: (§1) Aqueous solutions containing Phosalacine (Na salt) at different concentrations and 0.1% of octylphenylpolyoxy ethanol as surfactant were applied at a rate of 1500 liter per hectare to woody plants of about 60-70 cm in height. 7 and 14 days after the foliage treatment, damage to the plants was visually assessed on a scale of from 0 to 5 (cf. Example 7).

Picea densiflora = assay: Foliage treatment of woody plants (Example 10); set-up: key: 0 indicates no effect; 5 indicates complete kill; conditions: Plant No. 22 Picea densiflora
Text: as §1

Larix leptolepis = assay: Foliage treatment of woody plants (Example 10); set-up: key: 0 indicates no effect; 5 indicates complete kill; conditions: Plant No. 23 Larix leptolepis
Text: as §1

Killifishes (Medaka) = assay: Acute toxicity to fish, survival ratio (Example 13); conditions: killifish
Procedure: Killifishes (Japanese name, Medaka), were obtained from a market and maintained in a water bath at 25±2° C. for a week. Then the fishes (each group consisting of 10 fishes) were placed in water baths containing the test compounds at given concentrations as shown in the following Table. 24 and 48 hours after this, the survival ratio (%) of each group was visually counted to assess the acute toxity.

Rumex obtusifolius = assay: Foliage treatment (Example 8); set-up: key: 0 indicates no effect; 5 indicates complete kill; conditions: Plant No. 14 Rumex obtusifolius
Procedure: (§2) Aqueous solutions of Phosalacine (Na salt) at different concentrations were applied at a rate of 1500 liters per hectare to naturally occurring plants or plants which were cultured on plates as shown in the following Table at certain stages of growth. […] One month after the foliage treatment, the inhibition of regrowth of the plants was visually investigated.

Digitaria adscendens = assay: Foliage treatment (Example 8); set-up: key: 0 indicates no effect; 5 indicates complete kill; conditions: Plant No. 10 Digitaria adscendens
Procedure: as §2

Solanum melongena = assay: Foliage treatment (Example 8); set-up: key: 0 indicates no effect; 5 indicates complete kill; conditions: Plant No. 31 Solanum melongena
Procedure: as §2

Pueraria lobata = assay: Foliage treatment (Example 8); set-up: key: 0 indicates no effect; 5 indicates complete kill; conditions: Plant No. 16 Pueraria lobata
Procedure: as §2

Cayratia japonica = assay: Foliage treatment (Example 8); set-up: key: 0 indicates no effect; 5 indicates complete kill; conditions: Plant No. 13 Cayratia japonica
Procedure: as §2

Helianthus tuberosus = assay: Foliage treatment (Example 8); set-up: key: 0 indicates no effect; 5 indicates complete kill; conditions: Plant No. 12 Helianthus tuberosus
Procedure: as §2

Imperata cyrindrica = assay: Foliage treatment (Example 8); set-up: key: 0 indicates no effect; 5 indicates complete kill; conditions: Plant No. 15 Imperata cyrindrica
Procedure: as §2

Pleioblastus chino = assay: Foliage treatment (Example 8); set-up: key: 0 indicates no effect; 5 indicates complete kill; conditions: Plant No. 11 Pleioblastus chino
Procedure: as §2

Triticum aestivum = assay: Foliage treatment (Example 8); set-up: key: 0 indicates no effect; 5 indicates complete kill; conditions: Plant No. 26 Triticum aestivum
Procedure: as §2

Daucus carota = assay: Foliage treatment (Example 8); set-up: key: 0 indicates no effect; 5 indicates complete kill; conditions: Plant No. 29 Daucus carota
Procedure: as §2

Raphanus sativus = assay: Foliage treatment (Example 8); set-up: key: 0 indicates no effect; 5 indicates complete kill; conditions: Plant No. 32 Raphanus sativus
Procedure: as §2

Oryzae sativa = assay: Foliage treatment (Example 8); set-up: key: 0 indicates no effect; 5 indicates complete kill; conditions: Plant No. 25 Oryzae sativa
Procedure: as §2

Eichhornia crassipes = assay: Activity against aquatic plants (Example 12); conditions: 0.1%, 1500 liter per hectare, 4 weeks after the treatment
Procedure: An aqueous solution containing 0.1% of Phosalacine (monosodium salt) and 0.1% of octylphenylpolyoxyethanol was applied to Eichhornia crassipes at a certain stage of growth, at a rate of 1500 liter per hectare as a foliage treatment. Damage to the plants was assessed visually 4 weeks after the treatment.

CC(C)C[C@H](NC(=O)[C@H](C)NC(=O)[C@@H](N)CCP(C)(=O)O)C(=O)O [Phosalacine (Na salt)]
damage to the plants, scale 0 to 5 (Castanea crenata; 0.125%, 7 days): 5
damage to the plants, scale 0 to 5 (Castanea crenata; 0.125%, 14 days): 5
damage to the plants, scale 0 to 5 (Castanea crenata; 0.25%, 7 days): 5
damage to the plants, scale 0 to 5 (Castanea crenata; 0.25%, 14 days): 5
damage to the plants, scale 0 to 5 (Castanea crenata; 0.5%, 7 days): 5
damage to the plants, scale 0 to 5 (Castanea crenata; 0.5%, 14 days): 5
damage to the plants, scale 0 to 5 (Picea densiflora; 0.125%, 7 days): 4
damage to the plants, scale 0 to 5 (Picea densiflora; 0.125%, 14 days): 5
damage to the plants, scale 0 to 5 (Picea densiflora; 0.25%, 7 days): 4
damage to the plants, scale 0 to 5 (Picea densiflora; 0.25%, 14 days): 5
damage to the plants, scale 0 to 5 (Picea densiflora; 0.5%, 7 days): 4
damage to the plants, scale 0 to 5 (Picea densiflora; 0.5%, 14 days): 5
damage to the plants, scale 0 to 5 (Larix leptolepis; 0.125%, 7 days): 4
damage to the plants, scale 0 to 5 (Larix leptolepis; 0.125%, 14 days): 5
damage to the plants, scale 0 to 5 (Larix leptolepis; 0.25%, 7 days): 4
damage to the plants, scale 0 to 5 (Larix leptolepis; 0.25%, 14 days): 5
damage to the plants, scale 0 to 5 (Larix leptolepis; 0.5%, 7 days): 4
damage to the plants, scale 0 to 5 (Larix leptolepis; 0.5%, 14 days): 5
Survival ratio (%) (Killifishes (Medaka); 20 ppm, 24 hours): 100%
Survival ratio (%) (Killifishes (Medaka); 20 ppm, 48 hours): 100%
Survival ratio (%) (Killifishes (Medaka); 100 ppm, 24 hours): 100%
Survival ratio (%) (Killifishes (Medaka); 100 ppm, 48 hours): 50%
Survival ratio (%) (Killifishes (Medaka); 500 ppm, 24 hours): 0%
Survival ratio (%) (Killifishes (Medaka); 500 ppm, 48 hours): 0%
damage to the plants, scale 0 to 5 (Rumex obtusifolius; 0.05%, 7 days): 3
damage to the plants, scale 0 to 5 (Rumex obtusifolius; 0.05%, 14 days): 4
damage to the plants, scale 0 to 5 (Rumex obtusifolius; 0.1%, 7 days): 5
damage to the plants, scale 0 to 5 (Rumex obtusifolius; 0.1%, 14 days): 5
damage to the plants, scale 0 to 5 (Digitaria adscendens; 0.05%, 7 days): 3
damage to the plants, scale 0 to 5 (Digitaria adscendens; 0.05%, 14 days): 4
damage to the plants, scale 0 to 5 (Digitaria adscendens; 0.1%, 7 days): 5
damage to the plants, scale 0 to 5 (Digitaria adscendens; 0.1%, 14 days): 5
damage to the plants, scale 0 to 5 (Solanum melongena; 0.05%, 7 days): 3
damage to the plants, scale 0 to 5 (Solanum melongena; 0.05%, 14 days): 5
damage to the plants, scale 0 to 5 (Solanum melongena; 0.1%, 7 days): 5
damage to the plants, scale 0 to 5 (Solanum melongena; 0.1%, 14 days): 5
damage to the plants, scale 0 to 5 (Pueraria lobata; 0.05%, 7 days): 3
damage to the plants, scale 0 to 5 (Pueraria lobata; 0.05%, 14 days): 4
damage to the plants, scale 0 to 5 (Pueraria lobata; 0.1%, 7 days): 5
damage to the plants, scale 0 to 5 (Pueraria lobata; 0.1%, 14 days): 5
damage to the plants, scale 0 to 5 (Cayratia japonica; 0.05%, 7 days): 3
damage to the plants, scale 0 to 5 (Cayratia japonica; 0.05%, 14 days): 4
damage to the plants, scale 0 to 5 (Cayratia japonica; 0.1%, 7 days): 5
damage to the plants, scale 0 to 5 (Cayratia japonica; 0.1%, 14 days): 5
damage to the plants, scale 0 to 5 (Helianthus tuberosus; 0.05%, 7 days): 3
damage to the plants, scale 0 to 5 (Helianthus tuberosus; 0.05%, 14 days): 4
damage to the plants, scale 0 to 5 (Helianthus tuberosus; 0.1%, 7 days): 5
damage to the plants, scale 0 to 5 (Helianthus tuberosus; 0.1%, 14 days): 5
damage to the plants, scale 0 to 5 (Imperata cyrindrica; 0.05%, 7 days): 3
damage to the plants, scale 0 to 5 (Imperata cyrindrica; 0.05%, 14 days): 4
damage to the plants, scale 0 to 5 (Imperata cyrindrica; 0.1%, 7 days): 5
damage to the plants, scale 0 to 5 (Imperata cyrindrica; 0.1%, 14 days): 5
damage to the plants, scale 0 to 5 (Pleioblastus chino; 0.05%, 7 days): 3
damage to the plants, scale 0 to 5 (Pleioblastus chino; 0.05%, 14 days): 4
damage to the plants, scale 0 to 5 (Pleioblastus chino; 0.1%, 7 days): 5
damage to the plants, scale 0 to 5 (Pleioblastus chino; 0.1%, 14 days): 5
damage to the plants, scale 0 to 5 (Triticum aestivum; 0.05%, 7 days): 3
damage to the plants, scale 0 to 5 (Triticum aestivum; 0.05%, 14 days): 4
damage to the plants, scale 0 to 5 (Triticum aestivum; 0.1%, 7 days): 5
damage to the plants, scale 0 to 5 (Triticum aestivum; 0.1%, 14 days): 5
damage to the plants, scale 0 to 5 (Daucus carota; 0.05%, 7 days): 3
damage to the plants, scale 0 to 5 (Daucus carota; 0.05%, 14 days): 4
damage to the plants, scale 0 to 5 (Daucus carota; 0.1%, 7 days): 5
damage to the plants, scale 0 to 5 (Daucus carota; 0.1%, 14 days): 5
damage to the plants, scale 0 to 5 (Raphanus sativus; 0.05%, 7 days): 3
damage to the plants, scale 0 to 5 (Raphanus sativus; 0.05%, 14 days): 4
damage to the plants, scale 0 to 5 (Raphanus sativus; 0.1%, 7 days): 5
damage to the plants, scale 0 to 5 (Raphanus sativus; 0.1%, 14 days): 5
damage to the plants, scale 0 to 5 (Oryzae sativa; 0.05%, 7 days): 3
damage to the plants, scale 0 to 5 (Oryzae sativa; 0.05%, 14 days): 4
damage to the plants, scale 0 to 5 (Oryzae sativa; 0.1%, 7 days): 5
damage to the plants, scale 0 to 5 (Oryzae sativa; 0.1%, 14 days): 5
Damage to the plants, assessed visually (Eichhornia crassipes): completely killed
